Experimental data reported in patent US12673946B2, “Pyrimidin-4(3H)-one derivatives as TRPV4 antagonists” (RaQualia Pharma Inc., priority 2020, dated 2026).

Target: T1, human TRPV4 (Homo sapiens, UniProt Q9HBA0)
T1 construct: host or cells: tetracycline-inducible Flp-In T-REx 293 cells
Assay: Hypotonicity-induced Ca2+ influx (Fluo-4, FDSS)
Format: cell-based
Outline: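 Flp-In T-REx 293 cells with tetracycline-induced human TRPV4, loaded with Fluo-4 for 60 min at 25 °C. Compound added 5 min before hypotonic mannitol/CaCl2 solution. Ca2+ signal recorded for 4.5 min on FDSS.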

[1] = Flp-In T-REx 293 cells expressing human TRPV4, examples listed under heading 'Human IC50<50 nM'
[2] = Flp-In T-REx 293 cells stably expressing human TRPV4, compounds listed by potency bin (<10 nM Tables 96-1/96-2, <3 nM Table 97)

T1 sequence (Q9HBA0 whole entry): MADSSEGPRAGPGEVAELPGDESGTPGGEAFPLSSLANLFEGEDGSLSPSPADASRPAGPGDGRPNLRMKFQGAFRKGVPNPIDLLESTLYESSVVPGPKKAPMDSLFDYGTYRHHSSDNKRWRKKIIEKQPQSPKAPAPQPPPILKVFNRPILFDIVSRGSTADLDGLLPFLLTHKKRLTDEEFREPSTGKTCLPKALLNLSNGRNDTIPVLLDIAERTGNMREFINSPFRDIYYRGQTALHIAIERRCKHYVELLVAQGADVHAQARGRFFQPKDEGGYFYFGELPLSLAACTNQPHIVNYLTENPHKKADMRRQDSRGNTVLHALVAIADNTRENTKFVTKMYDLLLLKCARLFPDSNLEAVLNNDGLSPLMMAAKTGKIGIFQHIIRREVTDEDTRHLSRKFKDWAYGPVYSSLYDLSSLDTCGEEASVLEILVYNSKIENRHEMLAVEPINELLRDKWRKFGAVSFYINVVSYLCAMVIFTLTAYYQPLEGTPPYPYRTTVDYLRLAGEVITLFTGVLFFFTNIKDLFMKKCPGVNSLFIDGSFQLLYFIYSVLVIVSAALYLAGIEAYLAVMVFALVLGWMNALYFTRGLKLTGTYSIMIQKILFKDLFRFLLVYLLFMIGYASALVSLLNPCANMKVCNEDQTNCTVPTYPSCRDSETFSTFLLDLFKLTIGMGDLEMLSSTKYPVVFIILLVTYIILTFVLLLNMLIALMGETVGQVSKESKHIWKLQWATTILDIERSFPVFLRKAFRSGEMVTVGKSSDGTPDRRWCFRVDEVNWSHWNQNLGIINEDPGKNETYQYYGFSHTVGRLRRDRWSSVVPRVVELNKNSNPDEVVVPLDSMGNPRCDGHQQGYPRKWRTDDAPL

Row | Structure (SMILES) | IC50 [1] [nM] | IC50 [2] [nM]
1 | O=C([C@H](O)c1cccc(-c2coc3ccccc23)c1)N1CCCc2nc(C3(c4ccccc4)CC3)[nH]c(=O)c2C1 [49-46] | < 50 | < 3
2 | O=C([C@H](O)c1cccc(-c2cccc(C3CC3)c2)c1)N1CCCc2nc(C3(c4ccccc4)CC3)[nH]c(=O)c2C1 [49-47] | < 50 | < 10
3 | Cc1ccc(-c2cccc([C@@H](O)C(=O)N3CCCc4nc(C5(c6ccccc6)CC5)[nH]c(=O)c4C3)c2)cc1C [49-48] | < 50 | < 10
4 | Cc1cc(C)cc(-c2cccc([C@@H](O)C(=O)N3CCCc4nc(C5(c6ccccc6)CC5)[nH]c(=O)c4C3)c2)c1 [49-49] | < 50 | < 10
5 | CC(C)c1cccc(-c2cccc([C@@H](O)C(=O)N3CCCc4nc(C5(c6ccccc6)CC5)[nH]c(=O)c4C3)c2)c1 [49-50] | < 50 | < 3
6 | Cc1cc(-c2cccc([C@@H](O)C(=O)N3CCCc4nc(C5(c6ccccc6)CC5)[nH]c(=O)c4C3)c2)ccc1Cl [49-51] | < 50 | < 3
7 | O=C([C@H](O)c1cccc(-c2cc(C(F)(F)F)ccc2Cl)c1)N1CCCc2nc(C3(c4ccccc4)CC3)[nH]c(=O)c2C1 [49-52] | < 50 | < 3
8 | O=C([C@H](O)c1cccc(-c2cccc(SC(F)(F)F)c2)c1)N1CCCc2nc(C3(c4ccccc4)CC3)[nH]c(=O)c2C1 [49-53] | < 50 | < 10
9 | O=C([C@H](O)c1cccc(-c2cccc(C(F)(F)F)c2)c1)N1CCCc2c(nc(C3(c4ccccc4)CC3)[nH]c2=O)C1 [49-54] | < 50 | < 10
10 | CC(C)(C)c1cccc(-c2cccc([C@@H](O)C(=O)N3CCCc4c(nc(C5(c6ccccc6)CC5)[nH]c4=O)C3)c2)c1 [49-55] | < 50 | < 10
11 | O=C([C@H](O)c1cccc(-c2cccc(OC(F)(F)F)c2)c1)N1CCCc2c(nc(C3(c4ccccc4)CC3)[nH]c2=O)C1 [49-56] | < 50 | < 10
12 | CC(C)c1cccc(-c2cccc([C@@H](O)C(=O)N3CCCc4c(nc(C5(c6ccccc6)CC5)[nH]c4=O)C3)c2)c1 [49-57] | < 50 | 
13 | O=C([C@H](O)c1cccc(-c2csc3ccccc23)c1)N1CCCc2nc(C3(c4cccc(Cl)c4)CC3)[nH]c(=O)c2C1 [50-1] | < 50 | < 10
14 | O=C([C@H](O)c1cccc(-c2cc3ccccc3s2)c1)N1CCCc2nc(C3(c4cccc(Cl)c4)CC3)[nH]c(=O)c2C1 [50-2] | < 50 | < 10
15 | O=C([C@H](O)c1cccc(-c2cccc(OC(F)(F)F)c2)c1)N1CCCc2nc(C3(c4cccc(Cl)c4)CC3)[nH]c(=O)c2C1 [50-3] | < 50 | < 10
16 | O=C([C@H](O)c1cccc(-c2cccc(C(F)(F)F)c2)c1)N1CCCc2nc(C3(c4cccc(Cl)c4)CC3)[nH]c(=O)c2C1 [50-4] | < 50 | < 3
17 | O=C([C@H](O)c1cccc(-c2ccc(Cl)cc2)c1)N1CCCc2nc(C3(c4cccc(Cl)c4)CC3)[nH]c(=O)c2C1 [50-5] | < 50 | < 3
18 | O=C([C@H](O)c1cccc(-c2cccc(F)c2)c1)N1CCCc2nc(C3(c4cccc(Cl)c4)CC3)[nH]c(=O)c2C1 [50-6] | < 50 | < 3
19 | CC(C)(C)c1cccc(-c2cccc([C@@H](O)C(=O)N3CCCc4nc(C5(c6cccc(Cl)c6)CC5)[nH]c(=O)c4C3)c2)c1 [50-7] | < 50 | < 10
20 | O=C([C@H](O)c1cccc(-c2coc3ccccc23)c1)N1CCCc2nc(C3(c4cccc(Cl)c4)CC3)[nH]c(=O)c2C1 [50-8] | < 50 | < 3
21 | CC(C)c1cccc(-c2cccc([C@@H](O)C(=O)N3CCCc4nc(C5(c6cccc(Cl)c6)CC5)[nH]c(=O)c4C3)c2)c1 [50-9] | < 50 | < 3
22 | O=C([C@H](O)c1cccc(-c2cccc(C3CC3)c2)c1)N1CCCc2nc(C3(c4cccc(Cl)c4)CC3)[nH]c(=O)c2C1 [50-10] | < 50 | < 10
23 | O=C([C@H](O)c1cccc(-c2ccnc(C(F)(F)F)c2)c1)N1CCCc2nc(C3(c4cccc(Cl)c4)CC3)[nH]c(=O)c2C1 [50-11] | < 50 | < 3
24 | O=C([C@H](O)c1cccc(-c2cccc(OCc3ccccc3)c2)c1)N1CCCc2nc(C3(c4cccc(Cl)c4)CC3)[nH]c(=O)c2C1 [50-12] | < 50 | < 10
25 | CC(C)Oc1cccc(-c2cccc([C@@H](O)C(=O)N3CCCc4nc(C5(c6cccc(Cl)c6)CC5)[nH]c(=O)c4C3)c2)c1 [50-13] | < 50 | < 10
26 | O=C([C@H](O)c1cccc(-c2cccc(Cl)c2)c1)N1CCCc2nc(C3(c4cccc(Cl)c4)CC3)[nH]c(=O)c2C1 [50-14] | < 50 | < 10
27 | O=C([C@H](O)c1cccc(-c2ccc3c(c2)OC(F)(F)O3)c1)N1CCCc2nc(C3(c4cccc(Cl)c4)CC3)[nH]c(=O)c2C1 [50-15] | < 50 | < 3

Row | Structure (SMILES) | IC50 [1] [nM] | IC50 [2] [nM]
28 | O=C([C@H](O)c1cccc(-c2cc(Cl)cc(OC(F)(F)F)c2)c1)N1CCCc2nc(C3(c4cccc(Cl)c4)CC3)[nH]c(=O)c2C1 [50-16] | < 50 | < 10
29 | O=C([C@H](O)c1cccc(-c2cc(Cl)cc(C(F)(F)F)c2)c1)N1CCCc2nc(C3(c4cccc(Cl)c4)CC3)[nH]c(=O)c2C1 [50-17] | < 50 | < 10
30 | O=C([C@H](O)c1cccc(-c2cc(F)cc(Cl)c2)c1)N1CCCc2nc(C3(c4cccc(Cl)c4)CC3)[nH]c(=O)c2C1 [50-18] | < 50 | < 3
31 | Cc1cc(-c2cccc([C@@H](O)C(=O)N3CCCc4nc(C5(c6cccc(Cl)c6)CC5)[nH]c(=O)c4C3)c2)ccc1Cl [50-19] | < 50 | < 3
32 | N#Cc1ccc(-c2cccc([C@@H](O)C(=O)N3CCCc4nc(C5(c6cccc(Cl)c6)CC5)[nH]c(=O)c4C3)c2)cc1 [50-20] | < 50 | < 3
33 | O=C([C@H](O)c1cccc(-c2ccc(F)c(Cl)c2)c1)N1CCCc2nc(C3(c4cccc(Cl)c4)CC3)[nH]c(=O)c2C1 [50-21] | < 50 | < 10
34 | CC(C)(C)c1ccc(-c2cccc([C@@H](O)C(=O)N3CCCc4nc(C5(c6cccc(Cl)c6)CC5)[nH]c(=O)c4C3)c2)cc1 [50-22] | < 50 | < 10
35 | O=C([C@H](O)c1cccc(-c2ccc(Cl)c(C(F)(F)F)c2)c1)N1CCCc2nc(C3(c4cccc(Cl)c4)CC3)[nH]c(=O)c2C1 [50-23] | < 50 | < 10
36 | O=C([C@H](O)c1cccc(-c2ccc(C(F)(F)F)cc2)c1)N1CCCc2nc(C3(c4cccc(Cl)c4)CC3)[nH]c(=O)c2C1 [50-24] | < 50 | < 10
37 | N#Cc1cccc(-c2cccc([C@@H](O)C(=O)N3CCCc4nc(C5(c6cccc(Cl)c6)CC5)[nH]c(=O)c4C3)c2)c1 [50-25] | < 50 | < 3
38 | O=C([C@H](O)c1cccc(-c2ccc(OC(F)(F)F)cc2)c1)N1CCCc2nc(C3(c4cccc(Cl)c4)CC3)[nH]c(=O)c2C1 [50-26] | < 50 | < 10
39 | CC(C)c1cccc(C2(c3nc4c(c(=O)[nH]3)CN(C(=O)C(O)c3cccc(-c5ccnc(C(F)(F)F)c5)c3)CCC4)CC2)c1 (stereo not drawn) [51-1] | < 50 | < 10
40 | CC(C)c1cccc(C2(c3nc4c(c(=O)[nH]3)CN(C(=O)[C@H](O)c3cccc(-c5cccc(C(F)(F)F)c5)c3)CCC4)CC2)c1 [51-2] | < 50 | < 10
41 | CC(C)c1cccc(C2(c3nc4c(c(=O)[nH]3)CN(C(=O)[C@H](O)c3cccc(-c5cccc(OC(F)(F)F)c5)c3)CCC4)CC2)c1 [51-3] | < 50 | < 10
42 | CC(C)c1cccc(C2(c3nc4c(c(=O)[nH]3)CN(C(=O)[C@H](O)c3cccc(-c5cccc(Cl)c5)c3)CCC4)CC2)c1 [51-4] | < 50 | < 10
43 | CC(C)c1cccc(C2(c3nc4c(c(=O)[nH]3)CN(C(=O)[C@H](O)c3cccc(-c5cccc(C(C)(C)C)c5)c3)CCC4)CC2)c1 [51-5] | < 50 | < 10
44 | CC(C)c1cccc(C2(c3nc4c(c(=O)[nH]3)CN(C(=O)[C@H](O)c3cccc(-c5ccnc(C(F)(F)F)c5)c3)CCC4)CC2)c1 [51-6] | < 50 | < 3
45 | CC(C)c1cccc(C2(c3nc4c(c(=O)[nH]3)CN(C(=O)[C@H](O)c3cccc(C5=CCCC5)c3)CCC4)CC2)c1 [51-7] | < 50 | < 3
46 | CC(C)c1cccc(C2(c3nc4c(c(=O)[nH]3)CN(C(=O)[C@H](O)c3cccc(-c5cccc(F)c5)c3)CCC4)CC2)c1 [51-8] | < 50 | < 10
47 | O=C([C@H](O)c1cccc(-c2cccc(F)c2)c1)N1CCCc2nc(C3(c4cccc(C5CCCCC5)c4)CC3)[nH]c(=O)c2C1 [52-1] | < 50 | < 10
48 | O=C([C@H](O)c1cccc(-c2cccc(C(F)(F)F)c2)c1)N1CCCc2nc(C3(c4cccc(C5CCCCC5)c4)CC3)[nH]c(=O)c2C1 [52-2] | < 50 | < 10
49 | O=C([C@H](O)c1cccc(-c2cccc(Cl)c2)c1)N1CCCc2nc(C3(c4cccc(C5CCCCC5)c4)CC3)[nH]c(=O)c2C1 [52-3] | < 50 | < 3
50 | O=C([C@H](O)c1cccc(-c2cccc(OC(F)(F)F)c2)c1)N1CCCc2nc(C3(c4cccc(C5CCCCC5)c4)CC3)[nH]c(=O)c2C1 [52-4] | < 50 | < 10
51 | CC(C)(C)c1cccc(-c2cccc([C@@H](O)C(=O)N3CCCc4nc(C5(c6cccc(C7CCCCC7)c6)CC5)[nH]c(=O)c4C3)c2)c1 [52-5] | < 50 | < 10
52 | O=C([C@H](O)c1cccc(-c2csc3ccccc23)c1)N1CCCc2nc(C3(c4cccc(C5CCCCC5)c4)CC3)[nH]c(=O)c2C1 [52-6] | < 50 | < 10
53 | O=C([C@H](O)c1cccc(-c2coc3ccccc23)c1)N1CCCc2nc(C3(c4cccc(C5CCCCC5)c4)CC3)[nH]c(=O)c2C1 [52-7] | < 50 | < 10
